# Experimental data reported in US10857089B2, “Cosmetic compositions comprising purple coneflower pressed juice” (Symrise AG, priority 2015, dated 2020).
# Key:
# [1] = system: CYP1A1 gene expression; experiment: CYP1A1 gene expression after induction with outdoor particles, qRT-PCR in keratinocytes; conditions: for CYP1A1 Induction mean ± SE: NHEK adult, 10 μM, untreated = 1
# Procedure: Adult human epidermal keratinocytes were cultured in keratinocyte medium without BPE and without EGF for 24 h prior to addition of model particles (see table 1.1). The model particles were suspended in phosphate buffered saline and were sonicated for 1 min and then directly added to the keratinocytes at 1.5 μg/cm^2. E/Z-2-benzylindene-5,6-dimethoxy-3,3-dimethylindan-1-one (BDDI) has been dissolved in DMSO and diluted in medium. Solutions containing the compound with maximal 0.1% DMSO were applied 2 h prior to treatment with the model particles. Gene expression was analyzed via qRT-PCR. For each gene, a specific PCR primer pair was designed as compiled in Table 2:
# Adult human epidermal keratinocytes were cultured in keratinocyte medium without BPE and without EGF for 24 h prior to addition of model particles (see table 1.1). The model particles were suspended in phosphate buffered saline and were sonicated for 1 min and then directly added to the keratinocytes at 1.5 μg/cm^2. Sclareolide has been dissolved in DMSO and diluted in medium. Solutions containing the compound with maximal 0.1% DMSO were applied 2 h prior to treatment with the model particles. Gene expression was analyzed via qRT-PCR. For each gene, a specific PCR primer pair was designed (see Table 2).
# [2] = system: IL-6 gene expression; experiment: Particle induced IL-6 gene expression, qRT-PCR in keratinocytes; format: cell-based, human; conditions: SRM1650b, control = 1
# Procedure: (§1) Gene expression was analyzed via qRT-PCR.
# (§2) Ginger root CO2 extract has been dissolved in DMSO and diluted in medium. […] Gene expression was analyzed via qRT-PCR. […] Table 7 compiles the results for ginger root CO2 extract altered POMC and IL-6 gene expression
# (§3) Purple coneflower pressed juice has been dissolved directly in medium. […] Gene expression was analyzed via qRT-PCR. […] Table 8 compiles the results for purple coneflower pressed juice altered POMC and IL-6 gene expression
# (§4) A mixture of purple coneflower pressed juice and ginger root CO2 extract has been pre-dissolved in DMSO and diluted in medium. […] Gene expression was analyzed via qRT-PCR. […] Table 9 compiles the results for purple coneflower pressed juice altered POMC and IL-6 gene expression
# [3] = system: CYP1A1 gene expression; experiment: CYP1A1 gene expression after induction with indoor particles, qRT-PCR in keratinocytes; format: cell-based, human; conditions: for Induction mean ± SE (CYP1A1): 10 μM, Huber990 1.5 μg/cm2, untreated = 1
# Procedure: as §1
# [4] = system: MMP1 gene expression; experiment: Particle induced MMP1 gene expression, qRT-PCR in keratinocytes; format: cell-based, human; conditions: SRM1650b, control = 1
# Procedure: as §1
# [5] = system: POMC gene expression; experiment: Particle induced POMC gene expression, qRT-PCR in keratinocytes; format: cell-based, human; conditions: SRM1650b, control = 1
# Procedure: as §1, §2, §3, §4
substance,measurement,setting,value
"E/Z-2-benzylindene-5,6-dimethoxy-3,3-dimethylindan-1-one [BDDI]",CYP1A1 Induction mean ± SE,"[1]; 6 h, SRM1650 1.5 μg/cm2",0.02 ± 0.00
same,CYP1A1 Induction mean ± SE,"[1]; 6 h, SRM2975 1.5 μg/cm2, particle control 1.03",0.20 ± 0.00
same,CYP1A1 Induction mean ± SE,"[1]; 24 h, SRM2975 1.5 μg/cm2",0.01 ± 0.00
same,inhibition of particle induced Cyp1A1 gene expression (in words),[1]; outdoor model particles,capable to inhibit
same,IL-6 6 h,[2]; 1 μM,0.9 ± 0.067
same,IL-6 6 h,[2]; 2.5 μM,0.6 ± 0.006
same,IL-6 6 h,[2]; 10 μM,0.5 ± 0.01
same,Induction mean ± SE (CYP1A1),[3]; 6 h,0.05 ± 0.00
same,Induction mean ± SE (CYP1A1),[3]; 24 h,0.20 ± 0.00
same,inhibition of particle induced Cyp1A1 gene expression (in words),[3]; indoor model particles,capable to inhibit
same,MMP1 24 h,[4]; 1 μM,0.7 ± 0.014
same,MMP1 24 h,[4]; 2.5 μM,0.8 ± 0.016
same,MMP1 24 h,[4]; 10 μM,0.5 ± 0.022
same,POMC 6 h,[5]; 1 μM,0.9 ± 0.018
same,POMC 6 h,[5]; 2.5 μM,1.1 ± 0.02
same,POMC 6 h,[5]; 10 μM,0.9 ± 0.001
